Consider two compounds from US20240287102A1, “NOVEL CRYSTALLINE FORMS OF [(1R)-2-(1-BENZOFURAN-3-YL)-1-{[(1S,2R,4R)-7-OXABICYCLO[2.2.1]HEPTAN-2-YL]FORMAMIDO}ETHYL]BORONIC ACID, ADDUCTS THEREOF, AND PROCESSES TO OBTAIN” (Merck Patent GmbH, priority 2021, published 2024).

In brackets after ≈: the same amount, converted by molar mass. Like-named read-outs stand apart in the source and are kept apart here.

The nature of series [1]: Water Vapour Sorption isotherm (25° C., DVS-Intrinsic). The series is classed as physicochemical. The settings on record: for water uptake levels: 25° C. How it is done:
DSC scan of trimeric form A1 was acquired on a Mettler-Toledo DSC 1 with a heating rate of 5 K/min, using nitrogen purge gas at 50 mL/min. TGA scan of trimeric form A1 was acquired on a Mettler-Toledo TGA 851 with a heating rate of 5 K/min, using nitrogen purge gas at 50 mL/min. […] Eur. Criteria (section 5.11.). Water Vapour Sorption isotherm was acquired on a DVS-Intrinsic system from SMS. […] Dissolution level of trimeric form A1 in Simulated Gastric Fluid [SGF, pH 1.2] at 37° C. was determined to be approximately 2.4 mg/mL after 2 h (see example 12).
DSC scan of hydrate form NF2 was acquired on a Mettler-Toledo DSC 1 with a heating rate of 5 K/min, using nitrogen purge gas at 50 mL/min. TGA scan of hydrate form NF2 was acquired on a Mettler-Toledo TGA 851 with a heating rate of 5 K/min, using nitrogen purge gas at 50 mL/min. […] Eur. Criteria (section 5.11.). Water Vapour Sorption isotherm was acquired on a DVS-Intrinsic system from SMS.
In the DSC, a phase transition to trimeric form A1 occurred above 150° C., and the trimeric A1 form has a melting peak onset greater than 220° C. […] DSC scan of the anhydrous form NF9 was acquired on a Mettler-Toledo DSC 1 with a heating rate of 5 K/min, using nitrogen purge gas at 50 mL/min. TGA scan of anhydrous form NF9 was acquired on a Mettler-Toledo TGA 851 with a heating rate of 5 K/min, using nitrogen purge gas at 50 mL/min. […] Eur. Criteria (section 5.11.). […] Water Vapour Sorption isotherm was acquired on a DVS-Intrinsic system from SMS.
This is followed by an exothermic event in the DSC, assigned to a phase transition to trimeric form A1. Finally, the melting of trimeric form A1 with melting peak onset at temperatures greater than 220° C. […] DSC scan of the hydrate of trimeric boronic acid adduct form NF7 was acquired on a Mettler-Toledo DSC 1 with a heating rate of 5 K/min, using nitrogen purge gas at 50 mL/min. TGA scan of the hydrate of trimeric boronic acid adduct form NF7 was acquired on a Mettler-Toledo TGA 851 with a heating rate of 5 K/min, using nitrogen purge gas at 50 mL/min. […] Eur. Criteria (section 5.11.). […]

The nature of series [2]: Thermodynamic solubility (24 h) at 37° C. To be noted: for solubility thermodynamic at 24 h: 37 °C, thermodynamic from solid. The class given is physicochemical. On the procedure:
Approximately 10-20 mg of 1-(4-{[6-Amino-5-(4-phenoxy-phenyl)-pyrimidin-4-ylamino]-methyl}-4-fluoro-piperidin-1-yl)-propenone was weighed into a 4 mL glass vial. 1 mL of SGF medium (simulated gastric fluid, pH 1.2), FaSSIF medium (fasted state intestinal medium, pH 6.5), or USP Phosphate buffer pH 7.4 was added and the suspension was shaken for 24 h at 450 rpm at 37° C. After 1 hour, 6 hours and after 24 hours, the vials were checked for the presence of undissolved compound and the pH was measured. If necessary, the pH was adjusted after 1 hour and 6 hours. The solid liquid separation was carried out using 1 mL syringe and 0.2 μm syringe filter. Clear filtrate was analyzed by HPlC after suitable dilution to measure the amount of API dissolved.

Series [3] deals with LMP7 subunit of the immunoproteasome (Homo sapiens, UniProt P20618+P28062). The settings on record: Singh et al, Br. J. Hematology 152(2): 155-163; cited from earlier work.

Take `O=C(N[C@@H](Cc1coc2ccccc12)B(O)O)[C@@H]1C[C@H]2CC[C@@H]1O2` [Form NF2]: the “hygroscopicity classification according to Ph. Eur. Criteria (section 5.11.)” value in series [1] was “slightly hygroscopic”. In addition, the water uptake levels is at most 1 % m/m in series [1] (relative humidity range 0-80% rh) and at most 5 % m/m in series [1] (relative humidity range 90-98% rh). In series [2] (Fasted-State Simulated Intestinal Fluid pH 6.5, 37° C., 24 h), the “Thermodynamic solubility FaSSIF pH 6.5” value is listed as 0.7 mg/mL. In series [2] (Simulated Gastric Fluid pH 1.2, 37° C., 24 h), the “Thermodynamic solubility SGF pH 1.2” value was 0.7 mg/mL. Moreover, the thermodynamic solubility at 24 h was around 700 µg/mL (≈ 2130 µM) in series [2] (fasted-state simulated intestinal fluid (FaSSIF), pH 6.5, fassif, Fasted-State Simulated Intestinal Fluid pH 6.5, 37° C., 24 h, read-out: Thermodynamic solubility FaSSIF pH 6.5) and around 700 µg/mL (≈ 2130 µM) in series [2] (simulated gastric fluid (SGF), pH 1.2, simulated gastric fluid, Simulated Gastric Fluid pH 1.2, 37° C., 24 h, read-out: Thermodynamic solubility SGF pH 1.2). The entries for the “solubility in biorelevant media (in words)” value in series [2] (listed as Hydrate form NF2) and in series [2] (listed as hydrate form NF2) were “highly soluble in biorelevant media” and “good solubility in biorelevant media”, respectively.

For `CC1=C(C(=O)N[C@H](C)C(=O)N[C@@H](Cc2c[nH]c3ccccc23)C(=O)N[C@@H](Cc2ccccc2)C(=O)[C@@]2(C)CO2)Cc2ccccc21` [PR-924], in series [3], the “selectivity as inhibitor of the LMP7 subunit” value is 100 fold.
